One assay has as its target apo and holo GOx. Details: method as in PMID 10491329. To be noted: apo and holo GOx forms; cited from earlier work.
A further assay addresses glucose oxidase (GOx) (Aspergillus niger, UniProt P13006). Briefly: Tryptophan fluorescence emission binding experiments with GOx. Set-up: purchased Sigma Aldrich. To be noted: for Emmsion average / Normalized Fluorescence: Supplementary Figure 52 a.

Sequence of glucose oxidase (GOx) (P13006 17-605): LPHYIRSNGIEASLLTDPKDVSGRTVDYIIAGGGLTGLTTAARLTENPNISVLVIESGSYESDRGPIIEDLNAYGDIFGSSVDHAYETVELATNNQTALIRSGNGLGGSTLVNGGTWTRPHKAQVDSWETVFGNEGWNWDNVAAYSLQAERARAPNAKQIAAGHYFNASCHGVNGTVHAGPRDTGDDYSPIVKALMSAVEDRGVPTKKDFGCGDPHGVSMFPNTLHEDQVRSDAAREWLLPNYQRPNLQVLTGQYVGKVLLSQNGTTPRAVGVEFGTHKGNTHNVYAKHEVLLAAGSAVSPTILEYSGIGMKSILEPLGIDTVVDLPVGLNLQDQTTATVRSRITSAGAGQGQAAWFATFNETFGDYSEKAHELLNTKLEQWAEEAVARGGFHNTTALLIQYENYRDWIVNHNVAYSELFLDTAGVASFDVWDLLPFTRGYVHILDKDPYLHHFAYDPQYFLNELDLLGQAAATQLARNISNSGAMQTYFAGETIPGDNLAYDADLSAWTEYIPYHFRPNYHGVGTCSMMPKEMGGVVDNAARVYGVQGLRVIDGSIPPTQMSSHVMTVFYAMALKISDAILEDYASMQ

In the case of `OC[C@H]1O[C@@H](O)[C@H](O)[C@@H](O)[C@@H]1O` [β-D-glucose], the Kd at apo and holo GOx is about 10 mM; on glucose oxidase (GOx) (GOx 0.8 µM, Tris pH 7.8, 5% DMSO, 10 °C, read-out: apparent dissociation constant), 1.1 ± 0.02 mM. Also, the Emmsion average on glucose oxidase (GOx) ([Glucose] 1.6 μM) is 4205310; on glucose oxidase (GOx) ([Glucose] 32 μM) it was 4080311; on glucose oxidase (GOx) ([Glucose] 48 μM) it was 4060405; on glucose oxidase (GOx) ([Glucose] 400 μM) it was 4998302; on glucose oxidase (GOx) ([Glucose] 800 μM) it was 5886318; at glucose oxidase (GOx) ([Glucose] 2000 μM) it was 6538644. The Emmsion average on glucose oxidase (GOx) ([Glucose] 4000 μM) is on record as 6499875; on glucose oxidase (GOx) ([Glucose] 8000 μM), 5944287; on glucose oxidase (GOx) ([Glucose] 12000 μM), 7469372; at glucose oxidase (GOx) ([Glucose] 20000 μM) it was 7323012. Also, the “Normalized Fluorescence” value was 0.03401 at glucose oxidase (GOx) ([Glucose] 1.6 μM); 0.00328 on glucose oxidase (GOx) ([Glucose] 32 μM); -0.00162 at glucose oxidase (GOx) ([Glucose] 48 μM); 0.229 on glucose oxidase (GOx) ([Glucose] 400 μM); 0.4473 on glucose oxidase (GOx) ([Glucose] 800 μM); 0.6077 on glucose oxidase (GOx) ([Glucose] 2000 μM). Moreover, the “Normalized Fluorescence” value is listed as 0.5982 on glucose oxidase (GOx) ([Glucose] 4000 μM), 0.4616 at glucose oxidase (GOx) ([Glucose] 8000 μM), 0.8366 on glucose oxidase (GOx) ([Glucose] 12000 μM) and 0.8006 on glucose oxidase (GOx) ([Glucose] 20000 μM).

(Values after paper PMC7794297.)
